According to US20180071248A1, “COMPOSITION FOR IMPROVING CIRCADIAN RHYTHM” (SUNTORY HOLDINGS LIMITED, priority 2015, published 2018):

How the values were obtained:
[1] = test system: Per 2 gene expression rhythm; test: Per 2 gene expression rhythm in Per2::LUC knock-in mouse-derived embryonic fibroblast line (luciferase chemiluminescence, LumiCycle); type: cell-based; conditions: Per2::LUC mouse embryonic fibroblasts; each substance at 10 μM; FIG. 4
Protocol: The cell line used was Per2::LUC knock-in mouse-derived embryonic fibroblast line. Per2::LUC knock-in mouse is a mouse in which the luciferase gene serving as a reporter is introduced downstream of the promoter region of the clock gene Per 2. Therefore, a Per 2::LUC knock-in mouse-derived embryonic fibroblast line expresses the luciferase gene along with periodic expression of the clock gene. When Per 2::LUC knock-in mouse-derived embryonic fibroblasts are cultured in a culture medium containing luciferin, a luciferase substrate, the cells produce chemiluminescence periodically; thus, by monitoring the chemiluminescence, the expression rhythm of the clock gene Per 2 can be evaluated.
At first, about 5×10^5 cells of the Per2::LUC knock-in mouse-derived embryonic fibroblast line were seeded onto 35 mm culture dishes, and then treated with 200 nM dexamethasone for 2 hours to thereby reset (tune) the biorhythm of the cells. […] While the cell culture was continued, the chemiluminescence of the reporter gene was measured real-time with a luminometer (LumiCycle; produced by Actimetrics) for one minute at a frequency of every 10 minutes, and the measurement was continued for 5 days. Amplitude and period length were calculated from the obtained waveform to evaluate the effect of the test substance, a 1:1 mixture of sesamin/episesamin. […]

[2] = test system: circadian rhythm; conditions: disclosed in NPLs 4 and 5; cited from earlier work

SMILES	amplitude of Per 2 gene expression [1]	circadian rhythm amplitude [2]	circadian rhythm period [2]
c1cc2c(cc1[C@H]1OC[C@H]3[C@@H]1CO[C@@H]3c1ccc3c(c1)OCO3)OCO2 [sesamin]	capable of increasing the amplitude	–	–
Cn1c(=O)c2c(ncn2C)n(C)c1=O [caffeine]	–	amplify circadian rhythm amplitude	lengthen circadian rhythm period
Oc1cc2c(cc1[C@H]1OC[C@H]3[C@@H]1CO[C@@H]3c1ccc3c(c1)OCO3)OCO2 [sesaminol]	capable of increasing the amplitude	–	–
